Values joined by “and” are separate entries in the source; they are usually repeats but may differ in a detail not shown here. Identical values can stand only once. Like-named read-outs stand apart in the source and are kept apart here.
Assays:
[1] = system: A549 cells; format: cell-based
[2] = in vivo, po; cited from earlier work
[3] = system: SARS-CoV-2; format: cell-based; conditions: A549, MOI 5, 100 μM
[4] = system: A549 cells; experiment: IL-8 release from A549 cells, spontaneous or TGFbeta-induced; format: cell-based; conditions: TGFbeta stimulation, 24 h, 10 μg/ml E64D
[5] = system: Wistar rats; experiment: Dose range finding study, 14 days nose-only inhalation; format: in vivo; conditions: for lung with a spongy consistency (animals affected): females
Description: The purpose of this study was to perform a dose range finding (DRF) study using 14 days nose-only-inhaled Aloxistatin in rats. Possible side effects of Aloxistatin were characterized based on clinical observations, body weight, hematology, clinical pathology, macroscopic examination and histopathology of selected organs (respiratory tract, heart, kidneys, liver and spleen). Additionally, the setup of chemical analysis method for toxicokinetic analysis was established.
For the study, 64 Wistar rats [Crl:Wistar(Han)] received the test item at doses of 22.67, 68 or 227 μg/kg bw for 14 consecutive days via nose-only inhalation. Ethanol ≥96% was used as vehicle. Animals of the main study were sacrificed on […].
All animals were clinically observed in their cages at least once a day. Individual body weights were determined twice weekly. Blood samples for hematology and clinical chemistry were withdrawn before the exposure and on day 14. Necropsy, including a macroscopic evaluation of selected organs, was performed on day 15 or day 29 followed by histopathology of preselected organs. All macroscopic changes were recorded. Blood and lung sampling for setup of chemical analysis method for toxicokinetic analysis was performed on day 1 and 15 and upon sacrifice (day 2 and 15), respectively.

[6] = system: human peripheral blood cells (PBI); experiment: Chromosome aberration test
[7] = system: pseudovirus; experiment: Pseudovirus inoculation of human ACE2 transgenic mice, bioluminescence assay; format: in vivo; conditions: pre-treated via tail vein injection 2 days prior to virus inoculation; 1 day post infection
[8] = system: Mouse-Coronavirus; conditions: Mouse-Coronavirus model systems; cited from earlier work
[9] = system: rats; experiment: Toxicology study, 14-day inhalational applications; conditions: inhalation on 14 consecutive days
[10] = system: SARS-CoV-2; conditions: E64d added to the TMPRSS2 inhibitor Camostat; cited from earlier work
[11] = cited from earlier work
[12] = Nebulizer test / cascade impactor measurements with M-neb dose+; format: physicochemical
[13] = system: SARS-CoV-2; format: cell-based; conditions: HEK293-ACE2, MOI 5, 100 μM
[14] = system: Salmonella typhimurium strains TA 1535, TA 1537, TA 98, TA 100, and the Escherichia coli strain WP2 uvrA; experiment: Reverse mutation assay (plate incorporation test)
[15] = system: Th17 differentiation; conditions: rats; cited from earlier work
[16] = system: Vero e6-cells; conditions: concentrations up to 100 μM
[17] = system: fibroblasts; format: cell-based
[18] = physchem; conditions: organic solvent or mixture
[19] = system: IL-17 release; experiment: IL-17 release from human mononuclear cells in whole blood stimulated with cytokines; format: cell-based
[20] = system: Th17-lymphocytes; experiment: Measurement of Th17-lymphocytes by flow cytometry; format: cell-based, human
[21] = system: THP1 cells (macrophage-like cell line); experiment: IL-8 release from stimulated THP1 cells; format: cell-based; conditions: IL-1 or TNF/IL-1 stimulated cells, 24 hours
Experimental: This stimulation corresponds to a pro-inflammatory response. The supernatants were then removed, and the IL-8 release was measured.

[22] = system: mice; conditions: cited from earlier work
[23] = 22.67, 68 or 227 μg/kg bw, 14 days nose-only inhalation

## CCOC(=O)[C@H]1O[C@@H]1C(=O)N[C@@H](CC(C)C)C(=O)NCCC(C)C [E64D, aloxistatin]
[1]
  TGF-beta induced release of alpha-smooth muscle actin (aSMA): inhibits the TGF-beta induced release
  TGF-beta induced release of collagen 1: inhibits the TGF-beta induced release
  TGFbeta-induced collagen production: lowers the TGFbeta-induced collagen production of A549 in a dose-dependent manner
  TGFbeta-induced collagen release at highest dose: almost goes back to the initial value
[2]
  dose absorbed: at least 60%
[3]
  cell lysis: effectively inhibited
  virus replication of SARS-CoV-2: effectively inhibited
[4]
  TGFbeta-induced IL-8 release: block the induction almost completely
[5]; [23]
  body weight: no statistical differences between the groups
  changes in clinical chemistry parameters: considered incidental
  clinical observations: no clinical observations were noted
  mortality: No animal was found dead or killed moribund
[5]; low dose group
  lung with a spongy consistency (animals affected): 1/5
[5]; medium dose group
  lung with a spongy consistency (animals affected): 1/5
[5]; male animals, medium dose group, macroscopic examination
  slightly enlarged lung-associated lymph nodes (animals affected): 2/5
[5]; respiratory tract, lymph nodes, heart, kidneys, liver, spleen, after 14 days and after 14 days recovery
  histopathological examination: no treatment-related findings were detected
[6]; after 4 h of treatment, both without and with S9-mix
  aberrant cells (gaps excluded): only one aberrant cell
[6]; treated PBL
  structural chromosome aberrations: nearly complete absence of structural chromosome aberrations
[7]
  bioluminescence activity (virus replication): decrease in bioluminescence activity
[8]
  virus replication: effective inhibition of virus replication
[9]
  No-Observed-Adverse-Effect-Level (NOAEL), pulmonary dose: 413 μg/kg bw
[10]
  inhibition of virus entry: additive efficacy
[11]; rat, in vivo
  serum AST and ALT activities: rose dramatically
  time of minimum liver GSH level after administration: 5 h
[11]; rats
  liver glutathion (GSH) levels: obvious drop
[12]; 0.34 mg/ml solution
  aerosol output (fraction of actually inhaled E64d): 80%
[12]; 34 mg/ml solution
  aerosol output (fraction of actually inhaled E64d): 63%
[12]; all concentrations tested (0.34, 3.4 and 34 mg/ml)
  fine particle fraction (<5 μm): > 95%
[12]; concentration of the solution 340 ug/ml
  aerosol release rate: 0.108 mg/min
[12]; concentration of the solution 3.4 mg/ml
  aerosol release rate: 1 mg/min
[12]; concentration of the solution 34 mg/ml
  aerosol release rate: 8.7 mg/min
[12]; particle size distribution about 0.5-3 μm, impactor assays
  cumulative active compound deposition: > 99%
[13]
  cell lysis: effectively inhibited
  virus replication of SARS-CoV-2: effectively inhibited
[14]
  precipitation in the overlay agar on the incubated agar plates: 5000 μg/plate
[14]; all strains, with and without metabolic activation, up to 5000 μg/plate
  toxic effects (reduction in the number of revertants): No toxic effects
[14]; five tester strains, any dose level, with and without S9 mix
  increase in revertant colony numbers: No substantial increase
[14]; reverse mutation assay conclusion
  mutagenicity: non-mutagenic
[15]
  Th17 differentiation: suppresses Th17 differentiation in a dose-dependent manner
[16]
  cytotoxicity: non-toxic
[17]
  IL-17 induced proliferation and differentiation of fibroblasts: inhibiting the IL-17 induced proliferation and differentiation of fibroblasts
[18]
  solubility: ≤ 68000 µg/mL and ≤ 199000 µM
[19]
  release of the cytokine IL-17: can be inhibited
[20]
  polarization of Th2-lymphocytes: polarize Th2-lymphocytes into Th1-lymphocytes
[20]; co-incubation with E64D
  Th1 cells: dose-dependently up-regulates
  Th17 and Th17.1 cells: dose-dependently down-regulates
  Treg lymphocytes: upregulation of Treg lymphocytes
[20]; stimulation with IC-beads, with or without cytokine mix, whole blood lymphocytes and T-lymphocytes from bronchoalveolar lavage
  percentage of Th17 cells: reduces the percentage of Th17 cells
[21]
  IL-8 release: clearly lowers the IL-8 release

## CC(C)C[C@H](NC(=O)[C@H]1O[C@@H]1C(=O)O)C(=O)NCCCCN=C(N)N [E64]
[22]
  emphysematous changes: markedly attenuated emphysematous changes
